The target in the assay is T1, human mGlu 5a receptor (Homo sapiens, UniProt P41594).
T1 construct: expressed in transfected cells; host or cells: EBNA cells (transient transfection); cell membrane homogenates
The experiment in a line: [3H]MPEP competition binding on membranes of EBNA cells transiently transfected with human mGlu 5a receptor. The note with it: displacement of [3H]MPEP (2 nM), 1 h at 4° C. As for the experimental part: The pharmacological activity of the compounds was tested using the following method: For binding experiments, cDNA encoding human mGlu 5a receptor was transiently transfected into EBNA cells using a procedure described by Schlaeger and Christensen [Cytotechnology 15:1-13 (1998)]. Cell membrane homogenates were stored at −80° C. until the day of assay where upon they were thawed and resuspended and polytronized in 15 mM Tris-HCl, 120 mM NaCl, 100 mM KCl, 25 mM CaCl2, 25 mM MgCl2 binding buffer at pH 7.4 to a final assay concentration of 20 μg protein/well.
Saturation isotherms were determined by addition of twelve [^3H]MPEP concentrations (0.04-100 nM) to these membranes (in a total volume of 200 μl) for 1 h at 4° C. Competition experiments were performed with a fixed concentration of [^3H]MPEP (2 nM), and IC50 values of test compounds evaluated using […] (0.3-10,000 nM). Incubations were performed for 1 h at 4° C.
At the end of the incubation, membranes were filtered onto unifilter (96-well white microplate with bonded GF/C filter preincubated 1 h in 0.1% PEI in wash buffer, Packard BioScience, Meriden, Conn.) with a Filtermate 96 harvester (Packard BioScience) and washed 3 times with cold 50 mM Tris-HCl, pH 7.4 buffer. Nonspecific binding was measured in the presence of 10 μM MPEP. The radioactivity on the filter was counted (3 min) on a Packard Top-count microplate scintillation counter with quenching correction after addition of 45 μl of microscint 40 (Canberra Packard S.A., Zürich, Switzerland) and shaking for 20 min.
The inhibition (antagonists) curves were fitted with a four parameter logistic equation giving IC50, and Hill coefficient using iterative non linear curve fitting software (Xcel fit).
For binding experiments the Ki values of the compounds tested are given. The Ki value is defined by the following formula: Ki=IC50/[1+L/Kd] in which the IC50 values are these concentrations of the compounds tested which cause 50% inhibition of the competing radioligand ([^3H]MPEP). L is the concentration of radioligand used in the binding experiment and the Kd value of the radioligand is empirically determined for each batch of membranes prepared.
Background: In a radioligand displacement assay an active substance lowers the binding of a labelled ligand.

This passage reports Ki results from patent publication US7947685B2, “Pyrazine-2-carboxyamide derivatives” (Hoffmann-La Roche Inc., priority 2005, dated 2011).

T1 sequence (P41594 21-1180 isoform P41594-2 limits assumed): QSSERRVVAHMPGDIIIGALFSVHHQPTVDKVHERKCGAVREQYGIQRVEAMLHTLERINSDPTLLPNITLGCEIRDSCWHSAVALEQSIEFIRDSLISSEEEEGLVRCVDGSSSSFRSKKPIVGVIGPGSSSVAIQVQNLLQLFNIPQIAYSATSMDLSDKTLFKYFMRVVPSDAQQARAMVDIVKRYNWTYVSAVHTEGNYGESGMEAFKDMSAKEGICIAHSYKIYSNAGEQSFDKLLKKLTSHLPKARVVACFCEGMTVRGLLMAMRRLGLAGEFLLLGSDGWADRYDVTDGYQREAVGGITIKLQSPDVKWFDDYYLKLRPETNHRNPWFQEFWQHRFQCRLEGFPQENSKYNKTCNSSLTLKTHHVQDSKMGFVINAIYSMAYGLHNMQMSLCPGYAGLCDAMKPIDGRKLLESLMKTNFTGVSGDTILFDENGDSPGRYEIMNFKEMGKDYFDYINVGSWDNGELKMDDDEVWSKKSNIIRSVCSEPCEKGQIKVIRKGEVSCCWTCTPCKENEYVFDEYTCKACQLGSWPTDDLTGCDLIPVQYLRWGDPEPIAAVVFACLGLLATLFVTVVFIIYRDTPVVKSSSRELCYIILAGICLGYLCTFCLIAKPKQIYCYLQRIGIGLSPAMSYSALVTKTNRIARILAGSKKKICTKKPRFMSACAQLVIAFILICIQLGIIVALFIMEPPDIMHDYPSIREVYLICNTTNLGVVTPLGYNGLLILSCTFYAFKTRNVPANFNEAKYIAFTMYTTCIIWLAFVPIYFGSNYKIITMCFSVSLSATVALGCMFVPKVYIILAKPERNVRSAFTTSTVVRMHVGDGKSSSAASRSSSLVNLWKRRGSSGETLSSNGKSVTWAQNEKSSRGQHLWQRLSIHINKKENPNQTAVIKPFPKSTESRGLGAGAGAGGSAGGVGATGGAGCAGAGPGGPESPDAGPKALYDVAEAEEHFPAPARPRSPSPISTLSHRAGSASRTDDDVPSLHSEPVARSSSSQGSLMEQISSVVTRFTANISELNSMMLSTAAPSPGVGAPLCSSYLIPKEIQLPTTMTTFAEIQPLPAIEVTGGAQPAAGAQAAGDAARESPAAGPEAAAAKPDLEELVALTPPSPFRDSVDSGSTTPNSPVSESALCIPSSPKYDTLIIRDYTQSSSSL

Regarding `O=C(Nc1cccc(Cl)c1)c1nccnc1Nc1cccnc1` [Example 1, 3-(Pyridin-3-ylamino)-pyrazine-2-carboxylic acid (3-chloro-phenyl)-amide], the Ki worked out at 54 nM.

With `O=C(Nc1cccc(Cl)c1)c1nccnc1Nc1ccccc1` [Example 2, 3-Phenylamino-pyrazine-2-carboxylic acid (3-chloro-phenyl)-amide], the inhibitory constant (Ki) amounted to 95 nM.

As for `Cn1ccc(NC(=O)c2nccnc2Nc2cncc(F)c2)n1` [Example 3, 3-(5-Fluoro-pyridin-3-ylamino)-pyrazine-2-carboxylic acid (1-methyl-1H-pyrazol-3-yl)-amide], the inhibitory constant (Ki) was 71 nM.

On to `Cc1cc(NC(=O)c2nccnc2Nc2ccccc2)ccn1` [Example 4, 3-Phenylamino-pyrazine-2-carboxylic acid (2-methyl-pyridin-4-yl)-amide], for which the Ki was 761 nM.

In the case of `Cc1cc(NC(=O)c2nc(C)cnc2Nc2cncc(Cl)c2)ccn1` [Example 5, 3-(5-Chloro-pyridin-3-ylamino)-6-methyl-pyrazine-2-carboxylic acid (2-methyl-pyridin-4-yl)-amide], the inhibition constant Ki was determined as 1630 nM.

The Ki is the equilibrium dissociation constant of an inhibitor or competing ligand from its target.
